Key:
CC(=O)C(=O)O = assay: purified protein, by the assay type; settings: pH 7.4; 37.0 °C
Mtb-rDapA [1] = target: T1, Mtb-rDapA (Mycobacterium tuberculosis, UniProt P9WP25); assay: Fluorescence-based thermal shift assay; type: binding; settings: ligand 0.2 mM to 1 mM; Mtb-rDapA Tm 84.8 °C
Description: The fluorescence based thermal shift assay for screening of identified ligands, which is based on the principle that ligand binding alters thermal stability of protein. This method allows us to monitor the protein denaturation upon heating using fluorescence based dye (Sypro orange, Sigma, USA), which binds to hydrophobic part of proteins during protein denaturation and emits fluorescence at 580 nm[43]. We can monitor the changes in fluorescence and generate a thermal melting curve using real time PCR. The mid-point of the melting curve designated as the melting temperature Tm corresponding to 50% of protein being denatured.
The thermal shift assay was carried out in the LightCycler^R LC480 qPCR machine using 384 well PCR plates (Roche, USA). An assay mixture of 20 μl contained 20 μM Mtb-rDapA, 15 X Sypro Orange (Sigma), 50 mM sodium phosphate buffer pH 7.4 and ligand in the range 0.2 mM to 1 mM. The ligands and Mtb-rDapA were diluted in sodium phosphate buffer. The PCR plates were sealed with optical seal, mixed well and centrifuged after the assay mixture was added. […] The fluorescence intensity was measured by excitation at 465 nm and emission at 580 nm. Curve fitting, melting temperature calculation and report generation on the raw Fluorescence based thermal shift assay (FTS) data were performed using pre-installed analysis software provided with the instrument (Roche, USA)[44].

Mtb-rDapA [2] = target: T1, Mtb-rDapA; assay: LC-MS/MRM quantitation of THDP product of the coupled assay; type: biochemical; settings: MRM, 1 mM KPA (saturating concentration)
Method: The activity of Mtb-rDapA and Mtb-rDapB in catalyzing formation of THDP was confirmed by LC/MS analysis. A reaction mixture contained 1 μg of Mtb-rDapA, 30 μg of Mtb-rDapB, 10 mM pyruvate, 1 mM ASA, 0.16 mM NADPH and 50 mM sodium phosphate buffer pH 7.4 run at 37 °C for 5 min using UV-Vis spectrophotometer for THDP formation. Mtb-rDapA and Mtb-rDapB were then inactivated at 55 °C for 5 min to preserve integrity of reaction products and reaction mixture passed through 10 kDa cutoff filter unit (Millipore, USA) to filter the proteins and centrifuged at 6800 × g. The flow-through containing reaction products was used in LC/MS analysis. In order to observe the effect of inhibitor on THDP formation we added α-KPA in the assay mixture. The sample was subjected to analysis on a LC/ESI-MS (Quattro Micro API, Waters) coupled to a UPLC inlet. The flow through was loaded onto an Acquity UPLC BEH shield RP18, […], 2.1 100 mm column comprising a mobile phase of buffer A (water, 0.1% formic acid) and buffer B (acetonitrile, 0.1% formic acid) at a flow rate of 0.2 ml min^−1. […] Quantitative analysis of THDP formation was carried out by assessment of peak area in multiple reactions monitoring (MRM) mode with precursor ion 172.3 of THDP and corresponding daughter ions 125.6 and 107.5 by using above mentioned LC-MS/MS parameters.

Mtb-rDapA [3] = target: T1, Mtb-rDapA; assay: Size exclusion chromatography of Mtb-rDapA oligomerization
Method: Prior to gel filtration, the pre-packed Superdex 200 10/300 column (GE Healthcare) was pre-equilibrated with 50 mM Tris HCl pH 7.5, 150 mM NaCl and 10% glycerol. 25 μM Mtb-rDapA in 25 mM Tris/150 mM NaCl buffer was loaded in 500 μl volume. Multiple fractions of 1 ml volume were collected and each fraction runs on 12% SDS-PAGE gel electrophoresis. The ligand α-KPA in 1:5, 1:10 and 1:50 molar ratio of Mtb-rDapA was incubated with Mtb-rDapA and subjected to run as above. The chromatograms were collected by measuring absorption at 280 nm as a function of buffer volume at a flow rate of 0.3 ml/min. The column was calibrated by passing Apoferritin eluted at 10.5 ml, β-Amylase eluted at 12.5 ml, Alcohol dehydrogenase eluted at 13 ml, BSA eluted at 14.5 ml, carbonic anhydrase eluted at 16.9 ml, and cytochrome C eluted at 19 ml followed by a standard curve generation.

[4] = target: T2, recombinant Mtb-DapA (Mtb-rDapA) (Mycobacterium tuberculosis, UniProt P9WP25)
[5] = target: T2, recombinant Mtb-DapA (Mtb-rDapA); assay: biochemical

T1 sequence (P9WP25 whole entry, looked up): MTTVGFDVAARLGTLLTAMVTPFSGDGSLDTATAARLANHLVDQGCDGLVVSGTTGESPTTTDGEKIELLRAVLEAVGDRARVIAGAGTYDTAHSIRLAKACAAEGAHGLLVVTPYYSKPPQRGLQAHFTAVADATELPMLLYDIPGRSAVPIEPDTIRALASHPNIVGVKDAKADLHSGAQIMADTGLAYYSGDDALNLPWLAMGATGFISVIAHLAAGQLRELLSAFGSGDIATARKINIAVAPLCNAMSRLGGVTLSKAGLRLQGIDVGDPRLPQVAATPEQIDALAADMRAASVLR
T2 sequence (P9WP25 whole entry, looked up): as above

recombinant Mtb-DapA (Mtb-rDapA) (Mycobacterium tuberculosis H37Rv)
Km (CC(=O)C(=O)O): 148.8 µM

O=C(O)CCCCC(=O)C(=O)O [compound 1, 2-oxoheptanedioic acid]
Tm increase of Mtb-rDapA upon binding (Mtb-rDapA [1]): 1 °C | reduction of THDP product peak (SRM peak area / relative abundance) (Mtb-rDapA [2]; listed as KPA): up to 50% | reduction of THDP product peak (SRM peak area / relative abundance) (Mtb-rDapA [2]; listed as α-KPA): 50% | effect on Mtb-rDapA oligomerization (Mtb-rDapA [3]; ratios of 1:5 and 1:10 of Mtb-rDapA to α-KPA): the oligomerization was not affected | effect on Mtb-rDapA oligomerization (Mtb-rDapA [3]; α-KPA in 50-fold molar excess, 37 °C, 5 min): did not obtain any peak corresponding to either the tetramer or the octamer | fold increase of IC50, pre-incubation with pyruvate vs pre-incubation with α-KPA [4]: ~8 fold | Ki [5]: 32.5 µM | IC50 ([5]; IC50): 160 µM | IC50 ([5]; IC50, pyruvate 500 μM, ASA 400 μM): 21 µM | IC50 ([5]; IC50 of α-KPA, pyruvate 0.17 mM, ASA 400 μM, 10 min from start): 21 µM | IC50 ([5]; IC50 of α-KPA, pyruvate 0.17 mM, ASA 400 μM, 20 min from start): 21 µM | IC50 ([5]; IC50 of α-KPA, pyruvate 0.17 mM, ASA 400 μM, 30 min from start): 21 µM | IC50 ([5]; IC50 of α-KPA, pyruvate 0.17 mM, ASA 400 μM, 40 min from start): 31 µM | IC50 ([5]; IC50 of α-KPA, pyruvate 0.17 mM, ASA 400 μM, 50 min from start): 41 µM | IC50 ([5]; IC50 of α-KPA, pyruvate 0.17 mM, ASA 400 μM, 60 min from start): 51 µM | IC50 ([5]; IC50 of α-KPA, pyruvate 0.3 mM, ASA 400 μM, 10 min from start): 21 µM | IC50 ([5]; IC50 of α-KPA, pyruvate 0.3 mM, ASA 400 μM, 20 min from start): 21 µM | IC50 ([5]; IC50 of α-KPA, pyruvate 0.3 mM, ASA 400 μM, 30 min from start): 21 µM | IC50 ([5]; IC50 of α-KPA, pyruvate 0.3 mM, ASA 400 μM, 40 min from start): 31 µM | IC50 ([5]; IC50 of α-KPA, pyruvate 0.3 mM, ASA 400 μM, 50 min from start): 41 µM | IC50 ([5]; IC50 of α-KPA, pyruvate 0.3 mM, ASA 400 μM, 60 min from start): 51 µM | IC50 ([5]; IC50 of α-KPA, pyruvate 1 mM, ASA 400 μM, 10 min from start): 21 µM | IC50 ([5]; IC50 of α-KPA, pyruvate 1 mM, ASA 400 μM, 20 min from start): 21 µM | IC50 ([5]; IC50 of α-KPA, pyruvate 1 mM, ASA 400 μM, 30 min from start): 21 µM | IC50 ([5]; IC50 of α-KPA, pyruvate 1 mM, ASA 400 μM, 40 min from start): 31 µM | IC50 ([5]; IC50 of α-KPA, pyruvate 1 mM, ASA 400 μM, 50 min from start): 41 µM | IC50 ([5]; IC50 of α-KPA, pyruvate 1 mM, ASA 400 μM, 60 min from start): 51 µM | IC50 ([5]; IC50 of α-KPA, pyruvate 2 mM, ASA 400 μM, 10 min from start): 61 µM | IC50 ([5]; IC50 of α-KPA, pyruvate 2 mM, ASA 400 μM, 20 min from start): 61 µM | IC50 ([5]; IC50 of α-KPA, pyruvate 2 mM, ASA 400 μM, 30 min from start): 71 µM | IC50 ([5]; IC50 of α-KPA, pyruvate 2 mM, ASA 400 μM, 40 min from start): 81 µM | IC50 ([5]; IC50 of α-KPA, pyruvate 2 mM, ASA 400 μM, 50 min from start): 91 µM | IC50 ([5]; IC50 of α-KPA, pyruvate 2 mM, ASA 400 μM, 60 min from start): 101 µM | Emax ([5]; read-out: Maximal Inhibition (%)): 88% | inhibition at 400 µM ([5]; read-out: maximal inhibition): 77%

From PMC4977564, “Inhibition of Mycobacterium tuberculosis dihydrodipicolinate synthase by alpha-ketopimelic acid and its other structural analogues” (Scientific Reports, 2016)
